The source of these data is patent EP0341104B1, “Substituted flavonoid compounds, their salts, their manufacture and medicines containing these materials” (MERCK PATENT GmbH, priority 1988, dated 1989).

In data set [1] the test system is ristocetin-induced platelet agglutination. To be noted: Rubin et al, Lancet 1987; cited from earlier work.
Data set [2] concerns natural killer cell activity. The conditions noted are these: Wiltrout et al, J. Immunol. 1988; cited from earlier work.
Data set [3] deals with murine renal cancer. The conditions noted are these: Wiltrout et al, J. Immunol. 1988; cited from earlier work.
A short description of data set [4]: in vivo. To be noted: mouse, 400 mg/kg.
For data set [5], the system named is tumored cells of the type YAC-1. The experiment in a line: stimulation of the activity of killer cells (splenic cells of treated mice, chromium 51 release). Type of data set: in vivo, Mice BALB/C. The conditions noted are these: 200 mg/kg intravenously; spleens taken 24 hours after administration; 4 hours incubation with 1 x 10⁴ YAC-1 cells; HBSS controls no measurable activity. The method, then:
The determination of the activity of killer cells was made in accordance with the following. Mice BALB/C were treated intraveneously, either with 0.25 ml of HBSS or with 200 mg/kg of a compound of formula (IV). Twenty four hours after administration of the compound, the spleens of the animals were reduced to a state of suspension. Debris and cellular wastes are eliminated by sedimentation and the red corpuscles are lysed with distilled water. The cellular suspension obtained was then filtered over sterile gauze and washed twice with HBSS.
Different quantities of splenic cells are incubated with 1 x 10⁴ tumored cells of the type YAC-1 stained with chromium 51. The length of incubation was 4 hours at 37°C in a RPMI 1640-type medium supplemented with 5% of FBS, pencillin (100 U/ml) streptomycin (100 µg/ml), L-glutamine (20 mM), sodium pyruvate (1 mM), and nonessential amino acids (0.1 mM) in a buffered medium. The floating bodies are removed and a count effectuated.
The results are expressed in lytic units (UL₁₀): where UL₁₀ is the quantity necessary to effectuate lysis of 1 x 10⁴ target cells. For example, it was discovered that the compound of formula 19, provided 80 UL. The compound of formula 25 provided 60 UL. The compound of formula 42 provided 110 UL.

Data set [6] relates to interferon (IFN). Type of data set: in vivo, Mice BALB/C. To be noted: 200 mg/kg intravenously; unit = quantity of IFN in 1 ml of sample reducing viral lysis by 50%; HBSS controls no induction.
The conditions of data set [7]: after 20 days.

Consider `O=C(O)Cc1cccc2c(=O)cc(-c3ccccc3)oc12` [flavone-8-acetic acid], for which the ristocetin-induced platelet agglutination result in data set [1] was “inhibits”. For the same compound, the “systemic natural killer cell activity” value in data set [2] is “augments”. The “synergy with interleukin-2 (IL-2) for treatment of murine renal cancer” value in data set [3] is reported as “synergizes with interleukin-2 (IL-2)”. The mortality at 480 h in data set [4] worked out at 100%.
Consider `O=C(O)Cc1cccc2c(=O)cc(-c3ccc(-c4ccccc4)cc3)oc12` [formula 19, PHENYL-4-PHENYL)2-OXO-4-4H-(1)-BENZOPYRAN-8-ACETIC ACID], for which the “activity of killer cells in lytic units (UL₁₀)” value (“activity of killer cells” for short) in data set [5] was determined as 80 UL. Also, the Interferon activity in data set [6] is given as 1000 units of IFN.
Regarding `O=C(O)Cc1cccc2c(=O)cc(-c3ccc([N+](=O)[O-])cc3)oc12` [formula 25, (NITRO-4-PHENYL)-2-OXO-4-4H-(1)-BENZOPYRAN-8-ACETIC ACID], the “activity of killer cells” value in data set [5] turned out to be 60 UL. For the same compound, in data set [6], the Interferon activity is recorded as 1000 units of IFN.
Consider `O=C(O)Cc1ccc2c(=O)cc(-c3ccccc3)oc2c1` [formula 29, OXO-4-PHENYL-2-4H-(1) BENZOPYRAN-7-ACETIC ACID], for which the mortality at 480 h in data set [4] came to 10%.
With `C=C(C(=O)O)c1cccc2c(=O)cc(-c3ccccc3)oc12` [formula 42, (PHENYL-2-OXO-4-4H-(1) BENZOPYRAN-8-YL)-2-ACRYLIC ACID], the “activity of killer cells” value in data set [5] is on record as 110 UL.
With `Nc1nc(-c2cccc3c(=O)cc(-c4ccccc4)oc23)cs1` [formula 58, (AMINO-2-THIAZOL-4-YL)-8-PHENYL-2-4H-[1] BENZOPYRANONE-4], in data set [7], the mortality rate result was “no deaths”.
With `O=C(O)c1cccc2ccc3c(=O)cc(-c4ccccc4)oc3c12` [formula 67, OXO-4-PHENYL-2-4H-NAPHTO[1,2-b]PYRANONE-4], the Interferon activity in data set [6] is reported as 1000 units of IFN.
